# Assay results taken from the supplement of paper PMC7600603.
# Tests used:
# DLD1 NRF2-GOF [1] = details: 72 h; CellTiter-Glo viability
# How it was run: (§1)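 Isogenic DLD1 colorectal cancer cells, either NRF2 wild-type or CRISPR gain-of-function, were grown in DMEM with 10% FBS. They were exposed in 384-well plates to library compounds at 5 concentrations spanning a 10,000-fold range. After 72 h, viability was read by CellTiter-Glo on a Pherastar FS reader and normalised to vehicle wells and 100-μM positive-control wells. EC50 and drug sensitivity score (a normalised area under the curve) came from four-parameter logistic dose-response fits.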
# DLD1 NRF2-WT [2] = details: 72 h; CellTiter-Glo viability
# How it was run: as §1
# DLD1 NRF2-GOF [3] = assay: drug sensitivity score (DSS) cytotoxicity (DSS score); higher = more toxic; extreme values may be limits of the assay; details: 72 h; CellTox Green cytotoxicity
# How it was run: (§2)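 TC50 and drug sensitivity score, a normalised area under the curve, were derived by logistic dose-response fits of cytotoxicity. The cells were an isogenic DLD1 colorectal cancer pair, NRF2 wild-type or CRISPR-edited, kept in DMEM with 10% FBS. Compounds were tested in 384-well plates at 5 concentrations across a 10,000-fold range for 72 h. Readings with CellTox Green on a Pherastar FS reader were normalised to vehicle wells and 100-μM positive-control wells.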
# DLD1 NRF2-WT [4] = assay: as above; details: 72 h; CellTox Green cytotoxicity
# How it was run: as §2
# DLD1 NRF2-GOF [5] = assay: drug sensitivity score (DSS) viability (DSS score); higher = more sensitive; extreme values may be limits of the assay; details: 72 h; CellTiter-Glo viability
# How it was run: as §1
# DLD1 NRF2-WT [6] = assay: as above; details: 72 h; CellTiter-Glo viability
# How it was run: as §1
# DLD1 NRF2-GOF [7] = assay: TC50 cytotoxicity; higher = less toxic; details: 72 h; CellTox Green cytotoxicity
# How it was run: as §2
# DLD1 NRF2-WT [8] = assay: TC50 cytotoxicity; higher = less toxic; details: 72 h; CellTox Green cytotoxicity
# How it was run: as §2
Structure (SMILES),EC50 viability (DLD1 NRF2-GOF [1]),EC50 viability (DLD1 NRF2-WT [2]),drug sensitivity score (DLD1 NRF2-GOF [3]),drug sensitivity score (DLD1 NRF2-WT [4]),drug sensitivity score (DLD1 NRF2-GOF [5]),drug sensitivity score (DLD1 NRF2-WT [6]),TC50 cytotoxicity (DLD1 NRF2-GOF [7]),TC50 cytotoxicity (DLD1 NRF2-WT [8])
NC(=O)N1CCC(CC(=O)N2CCC([C@H]3c4ncc(Br)cc4CCc4cc(Cl)cc(Br)c43)CC2)CC1 [Lonafarnib],14200 nM,10500 nM,6.7,6.3,9.7,11,24200 nM,23500 nM
CN[C@@H](C)C(=O)N[C@H](C(=O)N1CCC[C@H]1c1nc(C(=O)c2ccc(F)cc2)cs1)C1CCCCC1 [NVP-LCL161],2360 nM,> 25000 nM,0,0,4.8,2.1,> 25000 nM,> 25000 nM
CCCCc1nc2cc(/C=C/C(=O)NO)ccc2n1CCN(CC)CC [Pracinostat],929 nM,795 nM,1.6,4,9.1,11.9,> 10000 nM,1480 nM
COC(=O)C[C@](O)(CCCC(C)(C)O)C(=O)O[C@@H]1C(OC)=C[C@]23CCCN2CCc2cc4c(cc2[C@H]13)OCO4 [Omacetaxine],54.6 nM,51.9 nM,8.4,10.1,26.9,27.6,329 nM,346 nM
COC(=O)c1ccc([C@H]2c3[nH]c4ccccc4c3C[C@H](C(=O)OC)N2C(=O)CCl)cc1 [RSL3],17.4 nM,> 10000 nM,0,0,9,6.6,> 10000 nM,> 10000 nM
CC(=O)O[C@]1(C(C)=O)CC[C@H]2[C@@H]3C=C(C)C4=CC(=O)CC[C@]4(C)[C@H]3CC[C@@]21C [Megestrol acetate],> 10000 nM,> 10000 nM,0,0,2.4,0,> 10000 nM,> 10000 nM
Cc1sc2c(c1C)C(c1ccc(Cl)cc1)=N[C@@H](CC(=O)OC(C)(C)C)c1nnc(C)n1-2 [JQ1],2710 nM,272 nM,0,0,2.6,8.8,> 10000 nM,> 10000 nM
O=C(Nc1ccncc1)C(=O)c1cn(Cc2ccc(Cl)cc2)c2ccccc12 [Indibulin],381 nM,283 nM,0,0.4,7.8,8.6,> 10000 nM,> 10000 nM
Nc1nc2[nH]cnc2c(=S)[nH]1 [Thioguanine],1290 nM,3500 nM,0,0.2,9.4,4.4,> 10000 nM,> 10000 nM
NCCNc1ccc(NCCN)c2c1C(=O)c1ccncc1C2=O [Pixantrone],1110 nM,1680 nM,0,0,4.9,4,> 10000 nM,> 10000 nM
CN(Cc1cnc2nc(N)nc(N)c2n1)c1ccc(C(=O)N[C@@H](CCC(=O)O)C(=O)O)cc1 [Methotrexate],29.7 nM,35.5 nM,0,0,23.8,23.4,> 5000 nM,> 5000 nM
COc1cc(N2CCN(C)CC2)ccc1Nc1nccc(-c2cn(C)c3cnccc23)n1 [AZ191],1780 nM,1590 nM,0,0.3,5.2,7,> 10000 nM,> 10000 nM
C[C@H]1C=C2C(=O)O[C@H]3CC[C@@H](C1)[C@@]23O [Galiellalactone],414 nM,> 25000 nM,0,0,5.1,2.8,> 25000 nM,> 25000 nM
C=CC(=O)Nc1cc2c(Nc3ccc(F)c(Cl)c3)ncnc2cc1OCCCN1CCOCC1 [Canertinib],2520 nM,1970 nM,5.5,7.1,6.8,8.1,3210 nM,2390 nM
CN(C)Cc1c(C(=O)NCCOc2ccc(C(=O)NO)cc2)oc2ccccc12 [Abexinostat],832 nM,582 nM,0.7,7.5,10.4,14,> 10000 nM,1250 nM
Cc1ccc(-n2nc(C(C)(C)C)cc2NC(=O)Nc2ccc(OCCN3CCOCC3)c3ccccc23)cc1 [Doramapimod],> 10000 nM,> 10000 nM,0,0,0,0,> 10000 nM,> 10000 nM
CC[C@@H]1[C@H](F)C(=O)N[C@@H]1COc1nccc2cc(C(N)=O)c(OC)cc12,> 10000 nM,> 10000 nM,0,0,2.4,0.5,> 10000 nM,> 10000 nM
COc1cc2c(Nc3ccc(Cl)c(Cl)c3F)ncnc2cc1OC[C@@H]1C[C@@H]2CN(C)C[C@@H]2C1 [Tesevatinib],425 nM,167 nM,0,0.1,1.2,5.1,> 1000 nM,> 1000 nM

Structure (SMILES),EC50 viability (DLD1 NRF2-GOF [1]),EC50 viability (DLD1 NRF2-WT [2]),drug sensitivity score (DLD1 NRF2-GOF [3]),drug sensitivity score (DLD1 NRF2-WT [4]),drug sensitivity score (DLD1 NRF2-GOF [5]),drug sensitivity score (DLD1 NRF2-WT [6]),TC50 cytotoxicity (DLD1 NRF2-GOF [7]),TC50 cytotoxicity (DLD1 NRF2-WT [8])
C#Cc1cccc(Nc2ncnc3cc(OCCOC)c(OCCOC)cc23)c1 [Erlotinib],3540 nM,321 nM,0,0,1.3,6.9,> 10000 nM,> 10000 nM
CCN(CC)CCN(Cc1ccc(-c2ccc(C(F)(F)F)cc2)cc1)C(=O)Cn1c(SCc2ccc(F)cc2)nc(=O)c2c1CCC2 [Darapladib],> 1000 nM,> 1000 nM,0,0,4.1,0,> 1000 nM,> 1000 nM
CO[C@@H](C)Cn1c(=O)n(C)c2cnc3ccc(-c4cncc(C(C)(C)O)c4)cc3c21,194 nM,171 nM,0,0,9.5,10.5,> 2500 nM,> 2500 nM
N#Cc1ccnc(N2C(=O)CC[C@H]2C(=O)N(c2cncc(F)c2)[C@H](C(=O)NC2CC(F)(F)C2)c2ccccc2Cl)c1 [Ivosidenib],349 nM,> 10000 nM,0,0,6.1,0.5,> 10000 nM,> 10000 nM
CN(c1ncccc1CNc1nc(Nc2ccc3c(c2)CC(=O)N3)ncc1C(F)(F)F)S(C)(=O)=O,3700 nM,2290 nM,0,0,4.1,6.7,> 10000 nM,> 10000 nM
CCOCc1nc2c(N)nc3ccccc3c2n1CC(C)(C)O [Resiquimod],> 10000 nM,> 10000 nM,0,0,0.6,0.7,> 10000 nM,> 10000 nM
CCS(=O)(=O)c1cccc(-c2cc(C(=O)NC3CCN(C)CC3)c(C)c3[nH]c4ncc(C)cc4c23)c1 [TAK-901],53.3 nM,108 nM,5.6,2.2,11.2,7.8,83.7 nM,> 1000 nM
COc1cccc2c1C(=O)c1c(O)c3c(c(O)c1C2=O)C[C@@](O)(/C(CO)=N/NC(=O)CCCCCN1C(=O)C=CC1=O)C[C@@H]3O[C@H]1C[C@H](N)[C@H](O)[C@H](C)O1 [Aldoxorubicin],149 nM,137 nM,0,0,7.6,8.5,> 1000 nM,> 1000 nM
CC(C)Oc1ccc(-c2nn([C@@H](C)c3oc4ccc(F)cc4c(=O)c3-c3cccc(F)c3)c3ncnc(N)c23)cc1F [TGR-1202],> 2500 nM,> 2500 nM,0,0,0,0,> 2500 nM,> 2500 nM
Sc1ncnc2nc[nH]c12 [Mercaptopurine],1720 nM,4290 nM,0,0,6.5,2.1,> 10000 nM,> 10000 nM
Cc1ccc(C(=O)Nc2ccc(Oc3cc4cnn(C)c4cc3-c3cn[nH]c3)c(F)c2)c(=O)n1-c1ccc(F)cc1 [Merestinib],98.6 nM,207 nM,0,0,7.9,4.2,> 1000 nM,> 1000 nM
NC(=O)Nc1cc(-c2cccc(F)c2)sc1C(=O)N[C@H]1CCCNC1 [AZD7762],106 nM,175 nM,1.7,2.2,7.6,5.3,362 nM,247 nM
CN(C)C[C@@H]1CCn2cc(c3ccccc32)C2=C(C(=O)NC2=O)c2cn(c3ccccc23)CCO1 [Ruboxistaurin],2000 nM,2080 nM,0.2,0,5,5.1,> 10000 nM,> 10000 nM
FC(F)c1nc2ccccc2n1-c1nc(N2CCOCC2)nc(N2CCOCC2)n1 [ZSTK474],180 nM,120 nM,0,0,6.2,11.4,> 10000 nM,> 10000 nM
Cn1ncc(Cl)c1-c1cc(C(=O)N[C@H](CN)Cc2ccc(F)c(F)c2)oc1Cl [Uprosertib],> 10000 nM,> 10000 nM,0,0,0,3.4,> 10000 nM,> 10000 nM
O=C(NOCCO)c1ccc2cncn2c1Nc1ccc(I)cc1F [GDC-0623],> 2500 nM,429 nM,0,0,0,3.3,> 2500 nM,> 2500 nM
CC[C@@](C)(Nc1ccnc(-c2c[nH]c3ncccc23)n1)C(=O)NCC(F)(F)F [Decernotinib],> 10000 nM,> 10000 nM,0,0,0,0,> 10000 nM,> 10000 nM
